Reference: article PMC11217295, “The immune response to RNA suppresses nucleic acid synthesis by limiting ribose 5-phosphate” (The EMBO Journal, 2024)

Biological target: Ribose 5-Phosphate Isomerase A (RPIA) (Homo sapiens, UniProt P49247)
Assay: continuous spectrophotometric isomerase assay with recombinant RPIA
Type: biochemical
Parameters: recombinant Streptavidin-tagged human RPIA expressed in E. coli
Description: continuous spectrophotometric isomerase assay with recombinant RPIA on Ribose 5-Phosphate Isomerase A (RPIA) | validated its activity against the human isomerase in a continuous spectrophotometric assay.

Chain of Ribose 5-Phosphate Isomerase A (RPIA) (P49247 whole entry): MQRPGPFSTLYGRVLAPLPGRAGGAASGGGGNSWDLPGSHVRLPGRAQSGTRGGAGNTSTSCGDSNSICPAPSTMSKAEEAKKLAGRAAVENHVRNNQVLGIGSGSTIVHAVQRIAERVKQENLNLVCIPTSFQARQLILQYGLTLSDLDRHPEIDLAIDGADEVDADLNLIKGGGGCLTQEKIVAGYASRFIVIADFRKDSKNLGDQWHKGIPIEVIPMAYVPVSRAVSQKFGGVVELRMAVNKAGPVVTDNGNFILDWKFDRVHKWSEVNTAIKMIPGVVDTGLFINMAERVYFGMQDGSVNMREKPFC

Question: `O=C(NO)[C@H](O)[C@H](O)COP(=O)(O)O` [JNB-hu20-057-2A] was tested. Which “continuous spectrophotometric isomerase assay with recombinant RPIA” value did it give?
Answer: Its value is “validated its activity against the human isomerase in a continuous spectrophotometric assay. This shows the inhibitor suppresses the activity”.
